Experimental data from PubChem BioAssay AID330 (DTP/NCI, 2004).
“And” between values parts separate entries of the source, which are not always exact repeats. Equal values may be shown once. Toxic doses and inconclusive results are not listed.

Test system: P388 leukemia ip, CD2F1 mice, survival T/C
Experiment: NCI In Vivo Anticancer Drug Screen. Data for tumor model P388 Leukemia (intraperitoneal) in CD2F1 (CDF1) mice
Conditions: endpoint: median survival time, higher = longer survival
How it was run: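 Mice carrying the transplanted tumor received test compound or vehicle. Survival was recorded in each group, and the value is the treated-group measurement divided by that of the vehicle-treated control group.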

[1] = dose: 50.0 mg/kg/injection, schedule: Q01DX005 (ip), vehicle: Klucel (hydroxypropylcellulose) (HPC)
[2] = dose: 100.0 mg/kg/injection, schedule: Q01DX005 (ip), vehicle: Klucel (hydroxypropylcellulose) (HPC)
[3] = dose: 200.0 mg/kg/injection, schedule: Q01DX005 (ip), vehicle: Klucel (hydroxypropylcellulose) (HPC)
[4] = dose: 50.0 mg/kg/injection, schedule: Q01DX009 (ip), vehicle: Klucel (hydroxypropylcellulose) (HPC)
[5] = dose: 60.0 mg/kg/injection, schedule: Q01DX005 (ip), vehicle: Klucel (hydroxypropylcellulose) (HPC)
[6] = dose: 120.0 mg/kg/injection, schedule: Q01DX005 (ip), vehicle: Klucel (hydroxypropylcellulose) (HPC)
[7] = dose: 240.0 mg/kg/injection, schedule: Q01DX005 (ip), vehicle: Klucel (hydroxypropylcellulose) (HPC)

For `Cc1cc2c(cc1C)NC1C(=O)C(c3ccccc3Cl)OC1=N2` (stereo not given), the T/C (dose: 50.0 mg/kg/injection, schedule: Q01DX005 (ip), vehicle: Klucel + Tween-80) was 92 % of control, the T/C (dose: 100.0 mg/kg/injection, schedule: Q01DX005 (ip), vehicle: Klucel + Tween-80) was 94 % of control and the T/C (dose: 200.0 mg/kg/injection, schedule: Q01DX005 (ip), vehicle: Klucel + Tween-80) was 91 % of control.

In the case of `CC(=O)C1=C(C(C)=O)C2(C)OC1(C)c1ccccc12`, the T/C (dose: 100.0 mg/kg/injection, schedule: Q01DX001 (ip), vehicle: Klucel (hydroxypropylcellulose) (HPC)) was 107 % of control, the T/C (dose: 200.0 mg/kg/injection, schedule: Q01DX001 (ip), vehicle: Klucel (hydroxypropylcellulose) (HPC)) was 104 % of control and the T/C (dose: 400.0 mg/kg/injection, schedule: Q01DX001 (ip), vehicle: Klucel (hydroxypropylcellulose) (HPC)) was 99 % of control.

In the case of `O=C(CC(c1ccccc1Cl)C(C(=O)O)c1ccccc1)c1ccccc1` (stereo not given), the T/C [1] was 100 % of control, the T/C [2] was 91 % of control and the T/C [3] was 99 % of control.

For `COc1cccc2c1C(=O)c1c(O)c3c(c(O)c1C2=O)C[C@@](O)(C(=O)CO)C[C@@H]3OC1CC(N2CCCCC2)C(O)C(C)O1` (stereo not given in full), the T/C (dose: 0.78 mg/kg/injection, schedule: Q01DX009 (ip), vehicle: water) was 151 % of control, the T/C (dose: 1.2 mg/kg/injection, schedule: Q04DX003 (ip), vehicle: water) was 100 % of control and the T/C (dose: 1.56 mg/kg/injection, schedule: Q01DX009 (ip), vehicle: water) was 184 % of control. For the same molecule, the T/C (dose: 2.4 mg/kg/injection, schedule: Q04DX003 (ip), vehicle: water) was 113 % of control, the T/C (dose: 3.13 mg/kg/injection, schedule: Q01DX009 (ip), vehicle: water) was 190 % of control and the T/C (dose: 4.7 mg/kg/injection, schedule: Q04DX003 (ip), vehicle: water) was 106 % of control. For the same molecule, the T/C (dose: 9.4 mg/kg/injection, schedule: Q04DX003 (ip), vehicle: water) was 155 % of control and the T/C (dose: 37.5 mg/kg/injection, schedule: Q04DX003 (ip), vehicle: water) was 87 % of control.

With `CC(O)C1CCNCC1` (stereo not given) the T/C (dose: 50.0 mg/kg/injection, schedule: Q01DX005 (ip), vehicle: saline) was 102 % of control and the T/C (dose: 100.0 mg/kg/injection, schedule: Q01DX005 (ip), vehicle: saline) was 97 % of control.

For `O=C1C/C(=N\O)CON1c1ccccc1`, the T/C (dose: 100.0 mg/kg/injection, schedule: Q01DX002 (ip), vehicle: Klucel (hydroxypropylcellulose) (HPC)) was 106 % of control, the T/C (dose: 200.0 mg/kg/injection, schedule: Q01DX002 (ip), vehicle: Klucel (hydroxypropylcellulose) (HPC)) was 98 % of control and the T/C (dose: 400.0 mg/kg/injection, schedule: Q01DX002 (ip), vehicle: Klucel (hydroxypropylcellulose) (HPC)) was 90 % of control.

With `CCCCC(CCCC)[N+](=O)[O-]` the T/C (dose: 50.0 mg/kg/injection, schedule: Q01DX005 (ip), vehicle: saline with Tween-80) was 108 % of control, the T/C (dose: 100.0 mg/kg/injection, schedule: Q01DX005 (ip), vehicle: saline with Tween-80) was 110 % of control and the T/C (dose: 200.0 mg/kg/injection, schedule: Q01DX005 (ip), vehicle: saline with Tween-80) was 103 % of control.

For `C[N+](C)(C)C1(Cc2ccccc2)c2ccccc2-c2ccc(Cl)cc21` (stereo not given), the T/C (dose: 12.5 mg/kg/injection, schedule: Q01DX009 (ip), vehicle: Klucel (hydroxypropylcellulose) (HPC)) was 107 % of control, the T/C (dose: 25.0 mg/kg/injection, schedule: Q01DX009 (ip), vehicle: Klucel (hydroxypropylcellulose) (HPC)) was 105 % of control and the T/C [4] was 108 % of control and 94 % of control.

In the case of `COc1ccccc1/C=C1/C(=O)N(c2ccc([N+](=O)[O-])cc2)N=C1C`, the T/C [1] was 102 % of control, the T/C [2] was 103 % of control and the T/C [3] was 101 % of control.

`CCCCCC(=O)C(C)C1(C(=O)OC)NC(=S)NC(=O)C1C#N` (stereo not given) was tested, and the T/C [5] was 105 % of control, the T/C [6] was 98 % of control and the T/C [7] was 97 % of control.

`CN(C)C=Nc1cccnc1[N+](=O)[O-]` was tested, and the T/C [4] was 108 % of control, the T/C (dose: 100.0 mg/kg/injection, schedule: Q01DX009 (ip), vehicle: Klucel (hydroxypropylcellulose) (HPC)) was 99 % of control and the T/C (dose: 200.0 mg/kg/injection, schedule: Q01DX009 (ip), vehicle: Klucel (hydroxypropylcellulose) (HPC)) was 108 % of control.

With `CC(=O)C1CCC2=C(C1)C(=O)c1cc3c(cc1C2=O)C1(c2ccccc2)OC3(c2ccccc2)C2C(=O)N(c3ccccc3)C(=O)C21` (stereo not given) the T/C [5] was 90 % of control and the T/C [6] was 88 % of control.

`CCC1=CC2CC(c3cc4c(cc3OC)N(C)C3C(O)(C(=O)NC)C(OC(C)=O)C5(CC)C=CCN6CCC43C65)c3[nH]c4ccccc4c3CCN(C1)C2` (stereo not given) was tested, and the T/C (dose: 0.06 mg/kg/injection, schedule: Q01DX009 (ip), vehicle: water) was 101 % of control, the T/C (dose: 0.13 mg/kg/injection, schedule: Q01DX009 (ip), vehicle: water) was 101 % of control and the T/C (dose: 0.25 mg/kg/injection, schedule: Q01DX009 (ip), vehicle: water) was 95 % of control. For the same molecule, the T/C (dose: 0.5 mg/kg/injection, schedule: Q01DX009 (ip), vehicle: water) was 89 % of control, the T/C (dose: 1.0 mg/kg/injection, schedule: Q01DX009 (ip), vehicle: water) was 94 % of control and the T/C (dose: 2.0 mg/kg/injection, schedule: Q01DX001 (ip), vehicle: water) was 103 % of control. The T/C (dose: 2.0 mg/kg/injection, schedule: Q01DX009 (ip), vehicle: water) was 97 % of control, the T/C (dose: 4.0 mg/kg/injection, schedule: Q01DX001 (ip), vehicle: water) was 99 % of control and the T/C (dose: 8.0 mg/kg/injection, schedule: Q01DX001 (ip), vehicle: water) was 98 % of control. For the same molecule, the T/C (dose: 16.0 mg/kg/injection, schedule: Q01DX001 (ip), vehicle: water) was 94 % of control, the T/C (dose: 25.0 mg/kg/injection, schedule: Q01DX001 (ip), vehicle: other) was 91 % of control and the T/C (dose: 32.0 mg/kg/injection, schedule: Q01DX001 (ip), vehicle: water) was 100 % of control. For the same molecule, the T/C (dose: 100.0 mg/kg/injection, schedule: Q01DX001 (ip), vehicle: other) was 91 % of control, the T/C (dose: 200.0 mg/kg/injection, schedule: Q01DX001 (ip), vehicle: other) was 94 % of control and the T/C (dose: 400.0 mg/kg/injection, schedule: Q01DX001 (ip), vehicle: other) was 94 % of control.

`CCOC(=O)C1(C(=O)OCC)COC(=O)C1` was tested, and the T/C (dose: 16.0 mg/kg/injection, schedule: Q01DX009 (ip), vehicle: saline with Tween-80) was 97 % of control, the T/C (dose: 32.0 mg/kg/injection, schedule: Q01DX009 (ip), vehicle: saline with Tween-80) was 109 % of control and the T/C (dose: 64.0 mg/kg/injection, schedule: Q01DX009 (ip), vehicle: saline with Tween-80) was 114 % of control. For the same molecule, the T/C (dose: 128.0 mg/kg/injection, schedule: Q01DX009 (ip), vehicle: saline with Tween-80) was 97 % of control and the T/C (dose: 256.0 mg/kg/injection, schedule: Q01DX009 (ip), vehicle: saline with Tween-80) was 106 % of control.

With `Cn1c(=O)c2c(-c3ccccc3)cc(-c3ccccc3)nc2n(C)c1=O` the T/C (dose: 100.0 mg/kg/injection, schedule: Q04DX002 (ip), vehicle: saline with Tween-80) was 97 % of control, the T/C (dose: 200.0 mg/kg/injection, schedule: Q04DX002 (ip), vehicle: saline with Tween-80) was 100 % of control and the T/C (dose: 400.0 mg/kg/injection, schedule: Q04DX002 (ip), vehicle: saline with Tween-80) was 101 % of control.

With `CC(C)COCC1COC2(OCC(C)(C)C2OC(=O)Nc2ccccc2)O1` (stereo not given) the T/C [5] was 95 % of control, the T/C [6] was 94 % of control and the T/C [7] was 91 % of control.

For `CCCCCC(=O)/C=C/C1=C(N2CCCC2)CN(C(=O)OCC)C1`, the T/C [5] was 86 % of control, the T/C [6] was 89 % of control and the T/C [7] was 91 % of control.

In the case of `CN(C)C(=O)c1cc(C(=O)N(C)C)cc2cccc-2c1`, the T/C (dose: 25.0 mg/kg/injection, schedule: Q04DX002 (ip), vehicle: saline) was 102 % of control, the T/C (dose: 50.0 mg/kg/injection, schedule: Q04DX002 (ip), vehicle: saline) was 98 % of control and the T/C (dose: 100.0 mg/kg/injection, schedule: Q04DX002 (ip), vehicle: saline) was 99 % of control and 97 % of control.

In the case of `CS/C(=C/c1ccc2ccccc2[n+]1C)N1CCN(C)CC1`, the T/C (dose: 6.25 mg/kg/injection, schedule: Q01DX005 (ip), vehicle: saline) was 99 % of control, the T/C (dose: 12.5 mg/kg/injection, schedule: Q01DX005 (ip), vehicle: saline) was 98 % of control and the T/C (dose: 25.0 mg/kg/injection, schedule: Q01DX005 (ip), vehicle: saline) was 102 % of control.

For `O=C(O)C1CCCCC1Cc1ccccc1` (stereo not given), the T/C (dose: 50.0 mg/kg/injection, schedule: Q01DX009 (ip), vehicle: saline with Tween-80) was 109 % of control, the T/C (dose: 100.0 mg/kg/injection, schedule: Q01DX009 (ip), vehicle: saline with Tween-80) was 98 % of control and the T/C (dose: 200.0 mg/kg/injection, schedule: Q01DX009 (ip), vehicle: saline with Tween-80) was 93 % of control.

In the case of `CC(=O)NCCCCCCCNC(C)=O`, the T/C (dose: 60.0 mg/kg/injection, schedule: Q01DX005 (ip), vehicle: saline) was 104 % of control, the T/C (dose: 120.0 mg/kg/injection, schedule: Q01DX005 (ip), vehicle: saline) was 107 % of control and the T/C (dose: 240.0 mg/kg/injection, schedule: Q01DX005 (ip), vehicle: saline) was 96 % of control.
